Laboratory results from patent US20240208959A1, “THIAZOLE/ISOTHIAZOLE HSD17B13 INHIBITORS AND USES THEREOF” (INIPHARM, INC., priority 2021, published 2024).

Target: T1, HSD17B13 enzyme (Homo sapiens, UniProt Q7Z5P4)
T1 construct: His; made in house; host or cells: E. coli
T1 sequence (Q7Z5P4 20-300): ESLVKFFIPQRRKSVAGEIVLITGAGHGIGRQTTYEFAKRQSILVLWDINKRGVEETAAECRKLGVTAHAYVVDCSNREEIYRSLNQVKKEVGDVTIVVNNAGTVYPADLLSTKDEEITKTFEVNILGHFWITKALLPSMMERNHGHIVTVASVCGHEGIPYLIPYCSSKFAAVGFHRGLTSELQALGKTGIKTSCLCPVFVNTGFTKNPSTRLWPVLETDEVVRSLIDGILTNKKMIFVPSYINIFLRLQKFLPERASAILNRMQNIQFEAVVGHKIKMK
Assay: LC/MS estrone detection assay: conversion of estradiol to estrone by HSD17B13
Format: biochemical
Conditions: 4 μM Estradiol, 6mM NAD, 30 nM HSD17B13 enzyme (E. coli expressed His-tagged), 2 hours at 26.5° C.
Procedure: Example A: Estrone Detection Assay for Evaluation of HSD17β13 Activity and Identification of Inhibitors
The liquid chromatography/mass spectrometry (LC/MS) estrone detection assay monitors the conversion of estradiol to estrone by HSD17B13. This assay was undertaken in a 96wp format (Eppendorf deep well Plate 96/500) in an 80 μl reaction volume containing: 4 μM of Estradiol (E2: Cayman: #10006315), 6mM NAD (Sigma: #N0623) and 30 nM HSD17B13 enzyme (in-house: E. coli expressed His-tagged, purified, soluble protein) in a reaction containing […] potassium phosphate buffer pH 7.4, with 0.5% vehicle (DMSO). Reactions were incubated for 2 hours at 26.5° C., and estradiol (E2) conversion to estrone (E1) was quantitated by LC-MS/MS based analyte detection for both E2 and E1 using LCMS grade reagents.
Reactions were terminated by the addition of two volumes of acetonitrile (MeCN: LCMS grade: CAS #75/05/8) containing deuterated (D4)-E1 used as internal standard (Clear Synth: #CS-T-54273: 500 ng/mL final concentration). Samples were applied to pre-prepared Bond Elut-C18 extraction cartridges (3 mL: Agilent: #12102028), washed and eluted in MeCN. Eluates were dried under nitrogen and re-suspended in 60% methanol (LCMS grade methanol: CAS #67/56/1) before submission for analysis. Aqueous linearity for E2 and E1 were included for quantification.
Analysis of samples was undertaken on a XBridge BEH C18 column (Waters: #186003033) using 0.1% Diethyl Amine in MeCN (mobile phase A: DEA CAS #109-89-7) and 0.1% Diethyl Amine in milli-Q water (mobile phase B) in a 3 min gradient allowing 25% B. Analytes were detected in negative mode using MRM analysis, with E2 having a RT of 1.85 min and E1 having a RT of 2 min Activity of the enzyme, in the absence of NAD′, was used to evaluate specificity of conversion. Enzyme activity in the presence of test samples was expressed as a percentage of the uninhibited enzyme activity, and plotted versus inhibitor concentration. Non-linear regression was performed using a four-parameter logistic model and GraphPad Prism software (GraphPad Software, La Jolla, CA). All assessments were undertaken in duplicate evaluations and pooled during extraction process and subsequently injected as duplicates for LC-MS/MS analysis.

| Compound | IC50 |
| --- | --- |
| CC(C)c1cc(C(=O)Nc2scnc2C(=O)NCc2ccccc2OC(F)(F)F)n[nH]c1=O [Example 14, 5-(5-isopropyl-6-oxo-1,6-dihydropyridazine-3-carboxamido)-N-(2-(trifluoromethoxy)benzyl)thiazole-4-carboxamide] | > 10000 nM |
| CC(C)(C)CCNC(=O)c1scnc1NC(=O)c1ccc(O)c(C(F)(F)F)n1 [Example 3, N-(3,3-dimethylbutyl)-4-(5-hydroxy-6-(trifluoromethyl)picolinamido)thiazole-5-carboxamide] | 500 to 1000 nM |
| O=C(Nc1ncsc1C(=O)NCc1ccccc1C(F)(F)F)c1cc(F)c(O)c(Cl)c1 [Example 9, 4-(3-chloro-5-fluoro-4-hydroxybenzamido)-N-{[2-(trifluoromethyl)phenyl]methyl}-1,3-thiazole-5-carboxamide] | ≤ 100 nM |
| O=C(Nc1scnc1C(=O)NC(CO)c1ccccc1)c1ccc(O)c(Cl)c1 (stereo in doubt) [Example 6, (R)-5-(3-chloro-4-hydroxybenzamido)-N-(2-hydroxy-1-phenylethyl)thiazole-4-carboxamide] | ≤ 100 nM |
| O=C(Nc1ncsc1C(=O)NCc1ccccc1OC(F)(F)F)c1cc(F)c(O)c(Cl)c1 [Example 11, 4-(3-chloro-5-fluoro-4-hydroxybenzamido)-N-(2-(trifluoromethoxy)benzyl)thiazole-5-carboxamide] | 100 to 500 nM |
| O=C(Nc1scnc1C(=O)NCc1ccccc1OC(F)(F)F)c1cc(Cl)c(=O)[nH]n1 [Example 13, 5-(5-chloro-6-oxo-1,6-dihydropyridazine-3-carboxamido)-N-(2-(trifluoromethoxy)benzyl)thiazole-4-carboxamide] | 500 to 1000 nM |
| O=C(Nc1scnc1C(=O)NCc1ccccc1OC(F)(F)F)c1c[nH]c(=O)cn1 [Example 16, 5-(5-oxo-4,5-dihydropyrazine-2-carboxamido)-N-(2-(trifluoromethoxy)benzyl)thiazole-4-carboxamide] | > 10000 nM |
| O=C(Nc1scnc1C(=O)NCc1ccccc1OC(F)(F)F)c1ccc(=O)[nH]n1 [Example 15, 5-(6-oxo-1,6-dihydropyridazine-3-carboxamido)-N-(2-(trifluoromethoxy)benzyl)thiazole-4-carboxamide] | > 10000 nM |
| O=C(Nc1ncsc1C(=O)NC(C(=O)O)c1ccccc1)c1ccc(O)c(Cl)c1 (stereo in doubt) [Example 8, (R)-2-(4-(3-chloro-4-hydroxybenzamido)thiazole-5-carboxamido)-2-phenylacetic Acid] | 1000 to 10000 nM |
| COc1ccccc1CCNC(=O)c1nc(C)sc1NC(=O)c1ccc(O)c(Cl)c1 [Example 12, 5-(3-chloro-4-hydroxybenzamido)-N-(2-methoxyphenethyl)-2-methylthiazole-4-carboxamide] | ≤ 100 nM |
| O=C(Nc1ncsc1C(=O)NCc1ccccc1F)c1cc(F)c(O)c(Cl)c1 [Example 10, 4-(3-chloro-5-fluoro-4-hydroxybenzamido)-N-(2-fluorobenzyl)thiazole-5-carboxamide] | 100 to 500 nM |
| O=C(Nc1ncsc1C(=O)NCCc1ccccc1C(F)(F)F)c1ccc(O)c(C(F)(F)F)n1 [Example 1, 4-(5-hydroxy-6-(trifluoromethyl)picolinamido)-N-(2-(trifluoromethyl)phenethyl)thiazole-5-carboxamide] | 100 to 500 nM |
| COC(=O)C(NC(=O)c1scnc1NC(=O)c1ccc(O)c(Cl)c1)c1ccccc1 (stereo in doubt) [Example 7, methyl (R)-2-(4-(3-chloro-4-hydroxybenzamido)thiazole-5-carboxamido)-2-phenylacetate] | 100 to 500 nM |
| Cc1nsc(NC(=O)c2ccc(O)c(Cl)c2)c1C(=O)NCCC(C)(C)C [Example 5, 5-(3-chloro-4-hydroxybenzamido)-N-(3,3-dimethylbutyl)-3-methylisothiazole-4-carboxamide] | ≤ 100 nM |
| O=C(Nc1ncsc1C(=O)NCc1ccccc1C(F)(F)F)c1cc(F)c(O)c(F)c1 [Example 4, 4-(3,5-difluoro-4-hydroxybenzamido)-N-(2-(trifluoromethyl)benzyl)thiazole-5-carboxamide] | ≤ 100 nM |
| O=C(Nc1ncsc1C(=O)NCCc1ccccc1F)c1ccc(O)c(C(F)(F)F)n1 [Example 2, N-(2-fluorophenethyl)-4-(5-hydroxy-6-(trifluoromethyl)picolinamido)thiazole-5-carboxamide] | 100 to 500 nM |
